This is an account of results in US6150359A, “Naphthyridinones for inhibiting protein tyrosine kinase and cell cycle kinase mediated cellular proliferation” (Warner-Lambert Company, priority 2000, dated 2000).

pIC50: −log10 of the molar value.

Assay [1] deals with T1, PDGFr (mouse PDGF-β receptor tyrosine kinase) (Mus musculus, UniProt P05622).
T1 construct: PCR primers are designed to amplify a fragment of DNA that codes for the intracellular tyrosine kinase domain; made in house; host or cells: Sf9 insect cells (baculovirus), cell lysate
T1 sequence (P05622 599-961 limits assumed): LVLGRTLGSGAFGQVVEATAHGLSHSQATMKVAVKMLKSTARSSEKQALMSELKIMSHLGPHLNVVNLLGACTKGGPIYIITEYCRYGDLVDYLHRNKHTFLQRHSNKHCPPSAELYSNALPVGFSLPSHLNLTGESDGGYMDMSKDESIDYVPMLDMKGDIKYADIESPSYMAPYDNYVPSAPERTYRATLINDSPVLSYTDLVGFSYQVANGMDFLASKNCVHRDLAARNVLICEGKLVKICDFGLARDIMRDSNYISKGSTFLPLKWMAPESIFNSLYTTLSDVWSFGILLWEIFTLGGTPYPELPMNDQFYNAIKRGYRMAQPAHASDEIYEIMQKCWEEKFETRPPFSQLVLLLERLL
Kind of assay: PDGFr tyrosine kinase assay, 32P incorporation into glutamate-tyrosine copolymer. The assay is classed as biochemical. As to conditions: 50 μM ATP. The protocol:
(§1) Platelet Derived Growth Factor Receptor (PDGFr) and Fibroblast Growth Factor Receptor (FGFr). Full length cDNAs for the mouse PDGF-β and human FGF-1 (flg) receptor tyrosine kinases were obtained from J. Escobedo and are prepared as described in J. Biol. Chem., 1991;262:1482-1487. PCR primers are designed to amplify a fragment of DNA that codes for the intracellular tyrosine kinase domain. The fragment is melded into a baculovirus vector, cotransfected with AcMNPV DNA, and the recombinant virus isolated. SF9 insect cells are infected with the virus to overexpress the protein, and the cell lysate is used for the assay.
(§2) PDGFr and FGFr. […] Briefly, to each well is added 82.5 μL of incubation buffer containing 25 mM Hepes (pH 7.0), 150 mM NaCl, 0.1% Triton X-100, 0.2 mM PMSF, 0.2 mM sodium vanadate, 10 mM manganese chloride, and 750 μg/mL of poly (4:1) glutamate-tyrosine followed by 2.5 μL of inhibitor and 5 μL of enzyme lysate (7.5 μg/μL FGFR-TK or 6.0 μg/μL PDGFR-TK) to initiate the reaction. Following a 10 minute incubation at 25° C., 10 μL of [γ^32 P]ATP (0.4 μCi plus 50 μM ATP) is added to each well, and samples are incubated for an additional 10 minutes at 25° C. The reaction is terminated by the addition of 100 μL of 30% trichloroacetic acid (TCA) containing 20 mM sodium pyrophosphate and precipitation of material onto glass fiber filter mats (Wallac). […] Nonspecific activity is defined as radioactivity retained on the filters following incubation of samples with buffer alone; (no enzyme). Specific enzymatic activity is defined as total activity (enzyme plus buffer) minus nonspecific activity.

Assay [2] deals with cdk2/cyclinE (Homo sapiens, UniProt P24941). Kind of assay: Cyclin-Dependent Kinase Assay, cdk2/cyclinE. The assay is classed as biochemical. As to conditions: retinoblastoma substrate. On the procedure:
(§3) Cyclin-Dependent Kinase Assays (cdk2/cyclinE, cdk2/cyclinA, cdkl/cyclinB)
(§4) All components except the ATP were added to the wells, and the plate was placed on a plate mixer for 2 minutes. The reaction was begun by addition of [^32 P]ATP, and the plate was incubated at 25° C. for 15 minutes. The reaction was terminated by addition of 0.1 mL of 20% TCA. The plate was kept at 4° C. for least 1 hour to allow the substrate to precipitate. The wells were then washed 5 times with 0.2 mL of 10% TCA and ^32 P incorporation determined with a beta plate counter (Wallace Inc., Gaithersburg, Md.).

Assay [3] has as its target T2, FGFr (human FGF-1 (flg) receptor tyrosine kinase) (Homo sapiens, UniProt P11362).
T2 construct: PCR primers are designed to amplify a fragment of DNA that codes for the intracellular tyrosine kinase domain; made in house; host or cells: Sf9 insect cells (baculovirus), cell lysate
Put plainly: FGFr tyrosine kinase assay, 32P incorporation into glutamate-tyrosine copolymer. The assay is classed as biochemical. As to conditions: 50 μM ATP; read-out: FGFr IC50. On the procedure:
as §1, §2

Assay [4] addresses T3, c-Src (Homo sapiens, UniProt P12931).
T3 construct: made in house; host or cells: baculovirus infected insect cells
Kind of assay: c-Src kinase assay, 32P incorporation into polyglutamate-tyrosine. The assay is classed as biochemical. As to conditions: 5 μM ATP. The protocol: (§5) Other Kinases. c-Src kinase is purified from baculovirus infected insect cell lysates using an antipeptide monoclonal antibody directed against the N-terminal 2-17 amino acids as described previously by Fry, et al., Anticancer Drug Design, 1994;9:331-351. Protein kinase C (PKC.) is obtained as a rat brain preparation from Promega.
c-Src. The antibody, covalently linked to 0.65-μm latex beads, is added to a suspension of insect cell lysis buffer comprised of 150 mM NaCl, 50 mM Tris pH 7.5, 1 mM DTT, 1% NP-40, 2 mM EGTA, 1 mM sodium vanadate, 1 mM PMSF, 1 μg/mL each of leupeptin, pepstatin, and aprotinin. Insect cell lysate containing the c-Src protein is incubated with these beads for 3 to 4 hours at 4° C. with rotation. At the end of the lysate incubation, the beads are rinsed three times in lysis buffer, resuspended in lysis buffer containing 10% glycerol, and frozen. These latex beads are thawed, rinsed three times in assay buffer which is comprised of 40 mM tris pH 7.5, 5 mM magnesium chloride, and suspended in the same buffer. In a Millipore 96-well plate with a 0.65 μm polyvinylidine membrane bottom are added the reaction components: 10-μL c-Src beads, 10 μL of 2.5 mg/mL polyglutamate-tyrosine substrate, 5 μM ATP containing 0.2 μCi labeled ^32 P-ATP, 5 μL DMSO containing inhibitors or as a solvent control, and buffer to make the final volume 125 μL. The reaction is started at room temperature by addition of the ATP and quenched 10 minutes later by the addition of 125 μL of 30% TCA, 0.1 M sodium pyrophosphate for 15 minutes on ice. The plate is then filtered and the wells washed with two 250-μL aliquots of 15% TCA, 0.1 M pyrophosphate. The filters are punched, counted in a liquid scintillation counter, and the data examined for inhibitory activity in comparison to a known inhibitor such as erbstatin. The method is described more fully in J. Med. Chem., 1994;37:598-609.

For assay [5], the target named is cdk4/cyclinD (Homo sapiens, UniProt P11802). Kind of assay: Cyclin-Dependent Kinase 4 (cdk4/cyclinD) Assay. The assay is classed as biochemical. As to conditions: 25 μM ATP, retinoblastoma substrate. The protocol:
Cyclin-Dependent Kinase 4 (cdk4/cyclinD) Assay
Enzyme assays for IC50 determinations and kinetic evaluation were performed in 96-well filter plates (Millipore MADVN6550). The total volume was 0.1 mL containing a final concentration of 20 mM TRIS (tris[hydroxymethyl]aminomethane), at pH 7.4, 50 mM NaCl, 1 mM dithiothreitol, 10 mM MgCl2, 25 μM ATP containing 0.25 μCi of [^32 P]ATP, 20 ng of cdk4/cyclinD, 1 μg of retinoblastoma, and appropriate dilutions of a compound of the present invention. All components except the ATP were added to the wells, and the plate was placed on a plate mixer for 2 minutes. The reaction was started by adding [^32 P]ATP and the plate was incubated at 25° C. for 15 minutes. The reaction was terminated by addition of 0.1 mL of 20% trichloroacetic acid (TCA). The plate was kept at 4° C. for at least 1 hour to allow the substrate to precipitate. The wells were then washed 5 times with 0.2 mL of 10% TCA and ^32 P incorporation was determined with a beta plate counter (Wallace Inc., Gaithersburg, Md.).

Assay [6] addresses T4, insulin receptor (INSr) (Homo sapiens, UniProt P06213).
T4 construct: An assay using the intracellular kinase domains of insulin receptor (INSr)
Put plainly: Insulin receptor (INSr) kinase assay. The assay is classed as biochemical. As to conditions: 10 mM manganese chloride. On the procedure: (§6) EGFr. Enzyme assays for IC50 determinations are performed in 96-well filter plates (Millipore MADVN6550). The total volume is 0.1 mL containing 20 mM Hepes, pH 7.4, 50 μM sodium vanadate, 40 mM magnesium chloride, 10 μM ATP containing 0.5 μCi of [^32 P]ATP, 20 μg of polyglutamic acid/tyrosine (Sigma Chemical Co., St. Louis, Mo.), 10 ng of EGF receptor tyrosine kinase and appropriate dilutions of inhibitor. All components except the ATP are added to the well, and the plate is incubated with shaking for 10 minutes at 25° C. The reaction is started by adding [^32 P]ATP, and the plate is incubated at 25° C. for 10 minutes. The reaction is terminated by addition of 0.1 mL of 20% trichloroacetic acid (TCA). The plate is kept at 4° C. for at least 15 minutes to allow the substrate to precipitate. The wells are then washed five times with 0.2 mL of 10% TCA, and ^32 P incorporation is determined with a Wallac beta plate counter.
(§7) Other Kinases. An assay using the intracellular kinase domains of insulin receptor (INSr) is performed as described for the EGF receptor except that 10 mM manganese chloride is included in the reaction. The PKC assay is performed as previously described by Martiny-Baron, et al., J. Biol. Chem., 1993;268:9194-9197.

Assay [7] deals with T5, EGFr (Human EGF receptor tyrosine kinase) (Homo sapiens, UniProt P00533).
T5 construct: Human EGF receptor tyrosine kinase is isolated from A431 human epidermoid carcinoma cells; endogenous in cells; host or cells: A431 human epidermoid carcinoma cells (detergent lysate, Q Sepharose fractions)
T5 sequence (P00533 25-1210): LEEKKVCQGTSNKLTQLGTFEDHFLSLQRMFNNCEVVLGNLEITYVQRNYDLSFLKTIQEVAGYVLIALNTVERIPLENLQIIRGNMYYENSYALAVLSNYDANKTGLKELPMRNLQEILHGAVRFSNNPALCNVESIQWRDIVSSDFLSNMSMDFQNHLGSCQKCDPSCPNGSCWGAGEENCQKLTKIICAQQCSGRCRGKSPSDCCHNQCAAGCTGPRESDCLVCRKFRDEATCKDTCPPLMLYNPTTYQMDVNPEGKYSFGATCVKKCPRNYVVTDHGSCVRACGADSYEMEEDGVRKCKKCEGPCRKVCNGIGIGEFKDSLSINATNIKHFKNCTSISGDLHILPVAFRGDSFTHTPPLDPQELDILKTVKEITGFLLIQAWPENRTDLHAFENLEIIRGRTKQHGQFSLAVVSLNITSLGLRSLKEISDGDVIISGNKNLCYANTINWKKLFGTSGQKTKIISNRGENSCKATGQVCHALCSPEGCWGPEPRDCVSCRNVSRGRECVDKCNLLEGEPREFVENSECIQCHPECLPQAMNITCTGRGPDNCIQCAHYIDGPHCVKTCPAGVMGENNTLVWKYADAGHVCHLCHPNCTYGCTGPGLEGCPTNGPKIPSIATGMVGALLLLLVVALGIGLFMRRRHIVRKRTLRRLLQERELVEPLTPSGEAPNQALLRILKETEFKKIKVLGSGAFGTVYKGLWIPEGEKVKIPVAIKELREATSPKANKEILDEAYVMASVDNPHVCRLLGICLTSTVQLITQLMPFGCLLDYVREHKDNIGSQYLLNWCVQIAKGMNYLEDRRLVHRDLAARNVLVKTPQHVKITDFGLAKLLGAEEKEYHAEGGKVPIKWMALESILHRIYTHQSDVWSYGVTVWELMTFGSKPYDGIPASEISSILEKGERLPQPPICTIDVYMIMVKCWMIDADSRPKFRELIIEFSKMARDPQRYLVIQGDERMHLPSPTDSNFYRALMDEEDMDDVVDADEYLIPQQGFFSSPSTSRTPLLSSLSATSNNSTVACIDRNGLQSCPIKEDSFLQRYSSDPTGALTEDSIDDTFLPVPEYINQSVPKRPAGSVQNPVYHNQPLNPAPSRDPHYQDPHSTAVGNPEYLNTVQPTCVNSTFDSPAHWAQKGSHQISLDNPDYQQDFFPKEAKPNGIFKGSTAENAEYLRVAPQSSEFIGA
Put plainly: EGFr tyrosine kinase assay. As to conditions: 10 μM ATP. The assay is classed as biochemical. On the procedure:
Epidermal Growth Factor Receptor (EGFr). Human EGF receptor tyrosine kinase is isolated from A431 human epidermoid carcinoma cells by the following method. Cells were grown in roller bottles in 50% Dulbecco's Modified Eagle medium and 50% HAM F-12 nutrient media (Gibco) containing 10% fetal calf serum. Approximately 10^9 cells are lysed in two volumes of buffer containing 20 mM 2-(4N-[2-[…]]piperazin-1-yl)ethanesulfonic acid (Hepes), pH 7.4, 5 mM ethylene glycol bis(2-aminoethyl ether) N,N,N',N'-tetraacetic acid (EGTA), 1% Triton X-100, 10% glycerol, 0.1 mM sodium orthovanadate, 5 mM sodium fluoride, 4 mM pyrophosphate, 4 mM benzamide, 1 mM dithiothreitol (DTT), 80 μg/mL aprotinin, 40 μg/mL leupeptin, and 1 mM phenylmethylsulfonyl fluoride (PMSF). After centrifugation at 25,000×g for 10 minutes, the supernatant is applied to a fast Q sepharose column (Pharmacia) and eluted with a linear gradient from 0.1 M NaCl to 0.4 M NaCl in 50 mM Hepes, 10% glycerol, pH 7.4. Enzyme active fractions are pooled, divided into aliquots, and stored at -100° C.
as §6

The target of assay [8] is Protein kinase C (PKC). Kind of assay: Protein kinase C (PKC) assay. The assay is classed as biochemical. As to conditions: rat brain preparation. On the procedure:
as §5, §7

Assay [9] has as its target cdk1/cyclinB (Homo sapiens, UniProt P06493). Kind of assay: Cyclin-Dependent Kinase Assay, cdk1/cyclinB. The assay is classed as biochemical. As to conditions: 12 mM ATP, retinoblastoma substrate. On the procedure: as §3, §4
In assay [10] the target is cdk2/cyclinA (Homo sapiens, UniProt P24941). Kind of assay: Cyclin-Dependent Kinase Assay, cdk2/cyclinA. As to conditions: 12 mM ATP, retinoblastoma substrate. The assay is classed as biochemical. The protocol:
as §3, §4

For assay [11], the system named is breast and lung cancer cells. As to conditions: several types of breast and lung cancer cells; cited from earlier work.
The test system of assay [12] is cdk2. As to conditions: cited from earlier work.
Assay [13] deals with cdk4. As to conditions: cited from earlier work.

Sequence of cdk4/cyclinD (P11802 whole entry, species assumed): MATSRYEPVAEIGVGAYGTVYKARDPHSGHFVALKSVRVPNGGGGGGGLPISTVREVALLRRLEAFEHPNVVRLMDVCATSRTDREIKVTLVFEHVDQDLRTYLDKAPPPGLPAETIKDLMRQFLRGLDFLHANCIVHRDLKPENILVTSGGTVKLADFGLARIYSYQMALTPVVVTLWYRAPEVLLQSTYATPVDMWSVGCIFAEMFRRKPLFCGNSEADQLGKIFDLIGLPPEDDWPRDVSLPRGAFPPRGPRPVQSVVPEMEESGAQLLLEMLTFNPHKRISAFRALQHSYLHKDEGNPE
Sequence of cdk4/cyclinD (P24385 whole entry partner, species assumed): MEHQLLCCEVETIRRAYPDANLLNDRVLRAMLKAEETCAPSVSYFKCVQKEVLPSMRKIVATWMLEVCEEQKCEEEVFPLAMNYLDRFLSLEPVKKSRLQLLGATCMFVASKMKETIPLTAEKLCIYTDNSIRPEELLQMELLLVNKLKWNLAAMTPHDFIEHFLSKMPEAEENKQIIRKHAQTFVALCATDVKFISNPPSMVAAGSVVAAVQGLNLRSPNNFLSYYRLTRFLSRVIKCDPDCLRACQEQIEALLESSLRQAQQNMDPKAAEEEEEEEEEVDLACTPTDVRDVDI
Sequence of cdk1/cyclinB (P06493 whole entry, species assumed): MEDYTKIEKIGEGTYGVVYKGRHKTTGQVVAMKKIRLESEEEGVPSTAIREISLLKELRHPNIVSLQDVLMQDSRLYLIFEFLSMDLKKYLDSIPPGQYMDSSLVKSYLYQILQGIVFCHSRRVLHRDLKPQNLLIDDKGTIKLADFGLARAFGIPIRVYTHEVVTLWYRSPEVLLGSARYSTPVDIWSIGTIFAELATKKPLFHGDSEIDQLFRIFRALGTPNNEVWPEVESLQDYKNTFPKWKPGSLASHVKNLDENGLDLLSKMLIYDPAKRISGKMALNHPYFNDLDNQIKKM
Sequence of cdk1/cyclinB (P14635 whole entry partner, species assumed): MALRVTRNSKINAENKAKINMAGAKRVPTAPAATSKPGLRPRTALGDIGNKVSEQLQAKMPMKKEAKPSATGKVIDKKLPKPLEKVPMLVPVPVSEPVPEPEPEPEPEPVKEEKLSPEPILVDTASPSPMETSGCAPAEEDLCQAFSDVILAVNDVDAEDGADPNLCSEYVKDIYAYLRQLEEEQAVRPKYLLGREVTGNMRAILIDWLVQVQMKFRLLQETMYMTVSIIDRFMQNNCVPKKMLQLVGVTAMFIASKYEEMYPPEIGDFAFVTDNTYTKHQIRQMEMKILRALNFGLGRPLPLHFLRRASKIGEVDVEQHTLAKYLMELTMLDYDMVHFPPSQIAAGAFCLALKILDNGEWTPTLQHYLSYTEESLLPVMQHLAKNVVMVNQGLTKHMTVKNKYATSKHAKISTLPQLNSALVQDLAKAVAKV
T3 sequence (P12931 whole entry, species assumed): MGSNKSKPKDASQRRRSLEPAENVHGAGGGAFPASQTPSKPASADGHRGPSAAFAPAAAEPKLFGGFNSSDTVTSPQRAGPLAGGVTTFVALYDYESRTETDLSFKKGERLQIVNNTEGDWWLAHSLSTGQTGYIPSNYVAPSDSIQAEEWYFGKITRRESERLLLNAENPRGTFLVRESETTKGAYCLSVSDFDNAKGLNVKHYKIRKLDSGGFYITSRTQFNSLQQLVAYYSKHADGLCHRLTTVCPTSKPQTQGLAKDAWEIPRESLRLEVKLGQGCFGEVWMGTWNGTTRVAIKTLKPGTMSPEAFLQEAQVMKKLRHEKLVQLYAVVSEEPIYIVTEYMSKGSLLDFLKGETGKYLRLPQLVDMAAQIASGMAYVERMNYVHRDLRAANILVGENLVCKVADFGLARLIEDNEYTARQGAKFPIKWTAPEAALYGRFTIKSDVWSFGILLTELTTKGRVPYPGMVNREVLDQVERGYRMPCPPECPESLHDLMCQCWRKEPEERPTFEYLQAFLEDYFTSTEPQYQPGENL
T2 sequence (P11362 478-767 limits assumed): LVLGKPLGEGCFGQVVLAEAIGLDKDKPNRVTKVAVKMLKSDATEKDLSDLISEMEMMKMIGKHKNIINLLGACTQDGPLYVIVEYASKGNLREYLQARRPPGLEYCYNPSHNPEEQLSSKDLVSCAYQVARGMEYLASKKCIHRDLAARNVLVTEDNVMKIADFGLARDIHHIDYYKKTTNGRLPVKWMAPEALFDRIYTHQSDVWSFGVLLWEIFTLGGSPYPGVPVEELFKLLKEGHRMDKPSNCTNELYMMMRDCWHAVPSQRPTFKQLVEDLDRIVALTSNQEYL
T4 sequence (P06213 1023-1298 limits assumed, species assumed): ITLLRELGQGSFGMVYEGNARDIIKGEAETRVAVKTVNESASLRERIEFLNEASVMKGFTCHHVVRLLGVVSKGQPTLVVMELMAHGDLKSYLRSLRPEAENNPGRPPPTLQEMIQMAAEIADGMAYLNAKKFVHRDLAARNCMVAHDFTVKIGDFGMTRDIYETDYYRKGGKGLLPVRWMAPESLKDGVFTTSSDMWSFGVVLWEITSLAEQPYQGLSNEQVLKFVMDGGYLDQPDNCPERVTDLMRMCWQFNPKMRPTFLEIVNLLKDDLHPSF

For the compound `CCn1c(=O)ccc2cnc(Nc3ccc(N4CCCCC4)cc3)cc21` [Example AA, 1-ethyl-7-(4-(piperidin-1-yl)phenylamino)-1H -[1,6]naphthyridin-2-one], the pIC50 was less than 4.30 in assay [1]; 5.30 in assay [2]; 4.91 in assay [3]; more than 4.30 in [4]; 5.82 in [5].

For `CN(C)c1cc2c(cn1)cc(-c1c(Cl)cccc1Cl)c(=O)n2C` [Example C, 3-(2,6-dichlorophenyl)-7-dimethylamino-1-methyl-1H -[1,6]naphthyridin-2-one], the pIC50 in [6] and in assay [4] was less than 4.30 each time.

For `Cn1c(=O)c(-c2c(Cl)cccc2Cl)cc2cnc(Nc3ccccc3)cc21` [Example M, 3-(2,6-dichlorophenyl)-1-methyl-7-(phenylamino)-1H-[1,6]naphthyridin-2-one], the negative logarithm of the IC50 (pIC50) in assay [1] was 6.00; in assay [7], more than 4.30; in assay [8], less than 4.30; in assay [3], 5.89; in assay [4] it was 6.10.

Regarding `CCn1c(=O)ccc2cnc(Nc3ccccc3)cc21` [Example W, 1-ethyl-7-phenylamino-1H-[1,6]naphthyridin-2-one], the negative logarithm of the IC50 (pIC50) is 5.72 in [9]; less than 4.30 in [1]; 6.06 in assay [10]; 5.96 in [2]; 4.77 in [3]; less than 4.30 in assay [4]. The compound also had a negative-log IC50 (pIC50) in assay [5] of 5.38.

Regarding `CCn1c(=O)ccc2cnc(Nc3ccc(OC)cc3)cc21` [Example X, 1-ethyl-7-(4-methoxyphenylamino)-1H-[1,6]naphthyridin-2-one], the pIC50 in [9] is 5.82; in assay [1], 4.30 to 5.30; in [10], 6.08; in assay [2], 5.89; in assay [3], 4.98; in assay [4], less than 4.30. In assay [5], this compound gave a negative-log IC50 (pIC50) of 5.59.

Turning to `CCn1c(=O)ccc2cnc(Nc3ccc(N4CCN(C)CC4)cc3)cc21` [Example Y, 1-ethyl-7-[4-(4-methylpiperazin-1-yl)phenylamino]-1H-[1,6]naphthyridin-2-one], the pIC50 in assay [9] is 5.13; in assay [1], 5.25; in assay [10], 5.46; in [2] it was 5.24; in [3], 5.85; in assay [4] it was 4.94. The same compound showed a negative logarithm of the IC50 (pIC50) in [5] of 6.46.

As to `CCn1c(=O)ccc2cnc(Nc3ccc(N4CCOCC4)cc3)cc21` [Example Z, 1-ethyl-7-(4-(morpholin-4-yl)phenylamino)-1H -[1,6]naphthyridin-2-one], the negative logarithm of the IC50 (pIC50) was 5.40 in assay [9]; less than 4.30 in assay [1]; 5.85 in assay [10]; 5.52 in [2]; 5.24 in assay [3]; 4.51 in assay [4]. In assay [5], this compound had a pIC50 of 5.87.

Take `CN1CC[C@H](c2c(O)cc(O)c3c(=O)cc(-c4ccccc4Cl)oc23)[C@H](O)C1` [flavopiridol]: the “inhibition of breast and lung cancer cells” value in [11] is “potent inhibitor of several types of breast and lung cancer cells”. Besides, the “inhibition of cdk2” value in [12] was “shown to inhibit cdk2 and cdk4”. Further, the “inhibition of cdk4” value in assay [13] was “shown to inhibit cdk2 and cdk4”.
